Experimental data reported in US20260008758A1, “LINEAR DIPEPTIDYL PEPTIDASE 1 INHIBITORS AND USES THEREOF” (Insmed Incorporated, priority 2024, published 2026).

Tests used:
human DPP1 enzyme = human DPP1 enzyme (Homo sapiens (Human), UniProt P53634); assay: Human DPP1 enzyme single-point percent inhibition testing (HL-60 lysate, H-Gly-Arg-AMC substrate); format: biochemical; conditions: read-out: human DPP1 enzyme % inhibition @ 10 nM, 10 nM compound, 400 μM H-Gly-Arg-AMC, 10 min pre-incubation at 37° C.
human DPP1 enzyme, sequence (P53634 25-134): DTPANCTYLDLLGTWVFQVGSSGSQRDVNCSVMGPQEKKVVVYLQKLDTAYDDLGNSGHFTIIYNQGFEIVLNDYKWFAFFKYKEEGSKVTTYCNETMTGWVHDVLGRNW
human DPP1 enzyme, sequence (P53634 231-394): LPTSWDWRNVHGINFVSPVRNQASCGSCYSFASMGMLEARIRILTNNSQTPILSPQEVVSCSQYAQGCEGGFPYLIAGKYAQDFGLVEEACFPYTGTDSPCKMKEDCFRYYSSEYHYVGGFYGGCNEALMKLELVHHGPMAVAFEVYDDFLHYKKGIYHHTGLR
human DPP1 enzyme, sequence (P53634 395-463): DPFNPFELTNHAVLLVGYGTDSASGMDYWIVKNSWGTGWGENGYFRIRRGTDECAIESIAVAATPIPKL
Procedure: A crude lysate of HL-60 cells (ATCC; Manassas, VA) was used as a source of human DPP1 enzyme in the assay. Lysate was prepared in 1% Triton X-100 in PBS at a concentration of 20,000 live cells per […] of lysis buffer and was centrifuged at 16,000 rcf for 10 minutes at 4° C., after which supernatant was collected and flash-frozen in liquid nitrogen. Test articles were applied to human DPP1 enzyme in Assay Buffer (25 mM MES pH 6.0, 50 mM NaCl, 5 mM DTT) in a total reaction volume of 125 μL. 25 μL of compound diluted to 50 nM in Assay Buffer plus 5% DMSO was first added to 50 μL of HL-60 lysate diluted to contain a DPP1 enzyme concentration of roughly 1 ng/μL and allowed to pre-incubate for 10 minutes at 37° C. after which 50 μL of 1000 μM H-Gly-Arg-AMC substrate (Bachem; St. Torrance, CA) was added, giving final compound concentration of 10 nM, a final substrate concentration of 400 μM and a final DMSO concentration of 1%. Substrate cleavage was measured for 90 minutes at 37° C., with fluorescence at Excitation/Emission 350/450 nm measured every 5 minutes. DPP1 concentration was interpolated based on its activity relative to a standard curve of activated human recombinant DPP1 enzyme. Percent inhibition at 10 nM was calculated for each test article based on remaining DPP1 activity compared to enzyme activity in wells that received only vehicle control.

DPP1 in HL-60 cells = DPP1 in HL-60 cells (Homo sapiens (Human), UniProt P53634); assay: DPP1 cell single-point percent inhibition testing (HL-60 cells, H-Gly-Phe-AFC substrate); format: cell-based; conditions: read-out: DPP1 cell % inhibition @ 5 nM, 5 nM compound, 100 μM H-Gly-Phe-AFC, 60 min pre-incubation at 37° C.
DPP1 in HL-60 cells, sequence (P53634 25-134): as the sequence (P53634 25-134) above
DPP1 in HL-60 cells, sequence (P53634 231-394): as the sequence (P53634 231-394) above
DPP1 in HL-60 cells, sequence (P53634 395-463): as the sequence (P53634 395-463) above
Procedure: HL-60 cells (ATCC; Manassas, VA) were maintained in RPMI-1640 supplemented with 20% heat-inactivated FBS and 1× Antibiotic Antimycotic (Cytiva; Marlborough, MA). Media was changed every three to four days and cells were not allowed to exceed 1×10^6 cells per mL. Prior to assay, cells were collected by centrifugation at 500 rcf for 3 minutes, resuspended in RPMI (with no additional supplements) and counted. Cells were diluted in RPMI to a concentration of 5×10^5 live cells per mL and transferred to black 96-well plates for assay, 60 μL per well. Test articles were diluted to 25 nM in RPMI plus 0.5% DMSO, and 20 μL was added to each assay well. Compound was allowed to pre-incubate with cells with gentle shaking at 100 rpm for 60 minutes at 37° C. in a cell culture incubator maintained at 5% CO2, after which 20 μL of 500 μM H-Gly-Phe-AFC cell-permeable substrate (MP Biomedicals; Solon, OH) in RPMI was added to each well, giving final compound concentration of 5 nM, a final substrate concentration of 100 μM and a final DMSO concentration of 0.1%. Plates were returned to the incubator with shaking at 100 rpm for 30 minutes, after which fluorescence was measured at Excitation/Emission 400/505 nm. Percent Inhibition was calculated from RFU values by first subtracting background values (wells in which RPMI was substituted for cells) from each well, and then subtracting background-subtracted RFU derived from wells that received a final concentration of 10 μM brensocatib. This value represents the non-specific substrate cleavage from the HL-60 cells, and the remaining RFU should theoretically be solely the contribution of DPP1 enzyme activity. The final percent inhibition value was calculated for each test article based on remaining RFU compared to RFU from wells that received only vehicle control.

Row | SMILES | inhibition at 0.01 µM (human DPP1 enzyme) | inhibition at 0.005 µM (DPP1 in HL-60 cells)
1 | CO[C@@H](CN(C)C)C(=O)N[C@H](C#N)Cc1ccc(-c2cc3c(C)nc(C)cn3c2)cc1F [Compound 316] | ≤ 40% | ≤ 76.5%
2 | CO[C@@H](CN(C)C)C(=O)N[C@H](C#N)Cc1ccc(-c2ccc3c(c2)C2(CN(C)C2)OC3=O)cc1F [Compound 317] | 40 to 66.7% | ≤ 76.5%
3 | CCN1C(=O)Cc2ccc(-c3ccc(C[C@@H](C#N)NC(=O)[C@H](CN(C)C)OC)c(F)c3)cc21 [Compound 318] | 40 to 66.7% | 76.5 to 93.9%
4 | CO[C@@H](CN(C)C)C(=O)N[C@H](C#N)Cc1ccc(-c2ccc3c(c2)C2(CCN(C)C2)OC3=O)cc1F (stereo partly drawn) [Compound 319] | ≥ 66.7% | ≤ 76.5%
5 | CO[C@@H](CN(C)C)C(=O)N[C@H](C#N)Cc1ccc(-c2ccc3cnn(C4CCN(C)CC4)c3c2)cc1F [Compound 320] | ≥ 66.7% | ≤ 76.5%
6 | CO[C@@H](CN(C)C)C(=O)N[C@H](C#N)Cc1ccc(-c2ccc3c(c2)C2(CCN(C4COC4)CC2)OC3)cc1F [Compound 321] | 40 to 66.7% | ≤ 76.5%
7 | CO[C@@H](CN(C)C)C(=O)N[C@H](C#N)Cc1ccc(-c2ccc3oc(=O)n(CCN4CCOCC4)c3c2)cc1F [Compound 322] | 40 to 66.7% | ≤ 76.5%
8 | CO[C@@H](CN(C)C)C(=O)N[C@H](C#N)Cc1ccc(-c2ccc(CN3CCN(C)CC3)cc2)cc1F [Compound 323] | ≤ 40% | 76.5 to 93.9%
9 | CO[C@@H](CN(C)C)C(=O)N[C@H](C#N)Cc1ccc(-c2ccc3oc(=O)n(C)c3c2)cc1F [Compound 324] | 40 to 66.7% | 76.5 to 93.9%
10 | CO[C@@H](CN(C)C)C(=O)N[C@H](C#N)Cc1ccc(-c2ccc3c(n2)CCCN3)cc1F [Compound 325] | ≤ 40% | ≤ 76.5%
11 | COCCN(C)CCn1c(=O)oc2ccc(-c3ccc(C[C@@H](C#N)NC(=O)[C@H](CN(C)C)OC)c(F)c3)cc21 [Compound 326] | ≥ 66.7% | ≤ 76.5%
12 | CO[C@@H](CN(C)C)C(=O)N[C@H](C#N)Cc1ccc(-c2ccc3cnn(C)c3c2)cc1 [Compound 328] | ≤ 40% | ≤ 76.5%
13 | CO[C@@H](CN(C)C)C(=O)N[C@H](C#N)Cc1ccc(-c2ccc3nnn(C)c3c2)cc1 [Compound 329] | ≤ 40% | ≤ 76.5%
14 | CO[C@@H](CN(C)C)C(=O)N[C@H](C#N)Cc1ccc(-c2cnc3c(n2)CCCC3)cc1 [Compound 330] | ≤ 40% | ≤ 76.5%
15 | CO[C@@H](CN(C)C)C(=O)N[C@H](C#N)Cc1ccc(-c2ccc(S(=O)(=O)N3CCC3)cc2)cc1 [Compound 331] | ≤ 40% | ≤ 76.5%
16 | CO[C@@H](CN(C)C)C(=O)N[C@H](C#N)Cc1ccc(-c2ccc3cnn(C)c3c2)cc1F [Compound 332] | ≤ 40% | ≤ 76.5%
17 | CO[C@@H](CN(C)C)C(=O)N[C@H](C#N)Cc1ccc(-c2ccc3nnn(C)c3c2)cc1F [Compound 333] | 40 to 66.7% | 76.5 to 93.9%
18 | CO[C@@H](CN(C)C)C(=O)N[C@H](C#N)Cc1ccc(-c2cnc3c(n2)CCCC3)cc1F [Compound 334] | ≤ 40% | ≤ 76.5%

Row | SMILES | inhibition at 0.01 µM (human DPP1 enzyme) | inhibition at 0.005 µM (DPP1 in HL-60 cells)
19 | CO[C@@H](CN(C)C)C(=O)N[C@H](C#N)Cc1ccc(-c2ccc(S(=O)(=O)N3CCC3)cc2)cc1F [Compound 335] | ≤ 40% | ≤ 76.5%
20 | CO[C@@H](CN(C)C)C(=O)N[C@H](C#N)Cc1cc2c(cc1F)-c1ccc(F)cc1CO2 [Compound 336] | ≤ 40% | ≤ 76.5%
21 | CN(C)C[C@H](O)C(=O)N[C@H](C#N)Cc1cc2c(cc1F)-c1ccc(C#N)cc1CO2 [Compound 338] | ≤ 40% | ≤ 76.5%
22 | CN(C)C[C@H](O)C(=O)NC(C#N)Cc1cc2c(cc1F)-c1cc3c(cc1CO2)oc(=O)n3C (stereo partly drawn) [Compound 339] | ≤ 40% | ≤ 76.5%
23 | CN(C)C[C@H](O)C(=O)NC(C#N)Cc1cc2c(cc1F)-c1ccc3oc(=O)n(C)c3c1CO2 (stereo partly drawn) [Compound 341] | ≤ 40% | ≤ 76.5%
24 | CN(C)C[C@H](O)C(=O)N[C@H](C#N)Cc1ccc(-c2ccc3c(c2)C2(CC3)CCN(C)CC2)cc1 [Compound 342] | 40 to 66.7% | ≤ 76.5%
25 | CN(C)C[C@H](O)C(=O)N[C@H](C#N)Cc1ccc(-c2ccc3c(c2)C2(CCCN(C)C2)C(=O)N3C)cc1 (stereo partly drawn) [Compound 343] | ≤ 40% | ≤ 76.5%
26 | CN(C)CCn1c(=O)oc2ccc(-c3ccc(C[C@@H](C#N)NC(=O)[C@@H](O)CN(C)C)cc3)cc21 [Compound 344] | 40 to 66.7% | ≤ 76.5%
27 | Cc1cn2cc(-c3ccc(C[C@@H](C#N)NC(=O)[C@@H](O)CN(C)C)cc3)cc2c(C)n1 [Compound 345] | ≤ 40% | ≤ 76.5%
28 | CN(C)C[C@H](O)C(=O)N[C@H](C#N)Cc1ccc(-c2ccc3c(c2)C2(CN(C)C2)OC3=O)cc1 [Compound 346] | 40 to 66.7% | ≤ 76.5%
29 | CCN1C(=O)Cc2ccc(-c3ccc(C[C@@H](C#N)NC(=O)[C@@H](O)CN(C)C)cc3)cc21 [Compound 347] | ≤ 40% | ≤ 76.5%
30 | CN(C)C[C@H](O)C(=O)N[C@H](C#N)Cc1ccc(-c2ccc3c(c2)C2(CCN(C)C2)OC3=O)cc1 (stereo partly drawn) [Compound 348] | 40 to 66.7% | ≤ 76.5%
31 | CN(C)C[C@H](O)C(=O)N[C@H](C#N)Cc1ccc(-c2ccc3cnn(C4CCN(C)CC4)c3c2)cc1 [Compound 349] | 40 to 66.7% | ≤ 76.5%
32 | CN(C)C[C@H](O)C(=O)N[C@H](C#N)Cc1ccc(-c2ccc3c(c2)C2(CCN(C4COC4)CC2)OC3)cc1 [Compound 350] | ≤ 40% | ≤ 76.5%
33 | CN(C)C[C@H](O)C(=O)N[C@H](C#N)Cc1ccc(-c2ccc3oc(=O)n(CCN4CCOCC4)c3c2)cc1 [Compound 351] | ≤ 40% | ≤ 76.5%
34 | CN(C)C[C@H](O)C(=O)N[C@H](C#N)Cc1ccc(-c2ccc(CN3CCN(C)CC3)cc2)cc1 [Compound 352] | ≤ 40% | ≤ 76.5%
35 | CN(C)C[C@H](O)C(=O)N[C@H](C#N)Cc1ccc(-c2ccc3oc(=O)n(C)c3c2)cc1 [Compound 353] | 40 to 66.7% | 76.5 to 93.9%
36 | CN(C)C[C@H](O)C(=O)N[C@H](C#N)Cc1ccc(-c2ccc3c(n2)CCCN3)cc1 [Compound 354] | ≤ 40% | ≤ 76.5%
